Results on ten molecules are retold here after US20260356856A1, “KRAS G12S AND G12C INHIBITORS” (MIRATI THERAPEUTICS, INC., priority 2023, published 2026).

Experiment [1] concerns the target T1, KRas-mediated phosphorylation of ERK in A549 cells (Homo sapiens, UniProt P01116, G12S).
T1 construct: pERK HTRF read-out
The experiment is described as follows: Inhibition of KRas-mediated phosphorylation of ERK (HTRF), A549 cells. Type of experiment: cell-based. The settings on record: HTRF pERK, 3 h incubation.

Experiment [2] addresses T2, KRas-mediated phosphorylation of ERK in MKN1 cells (Homo sapiens, UniProt P01116).
T2 construct: pERK HTRF read-out
The experiment is described as follows: Inhibition of KRas-mediated phosphorylation of ERK (HTRF), MKN1 cells. Format: cell-based. The settings on record: MKN1 cells (KRas WT); HTRF pERK; 3 h incubation. On the procedure: Inhibition of KRas Phosphorylation of ERK (HTRF) by Exemplary Compounds of Formula (Ia) or (Ib)
Cisbio HTRF Advanced pERK Assay Catalog #64AERPEH • Cells: MKN1, PSN1 • Procedure: • 1. Day 1: Seed 6,000 cells/well −25 μl/well in 384-well white solid bottom plate; RPM1_10% FBS. Incubate overnight at 37 °C/5% CO2. • 2.
In general terms: Time-resolved FRET reads energy transfer from a long-lived donor to a nearby acceptor.

A further experiment has as its target T3, KRas WT (Homo sapiens, UniProt P01116).
T3 construct: Biotinylated KRas (corresponding to amino acids 1-169, produced at Accelegan Inc.); biotin (biotinylated); purchased Accelegan Inc
Kind of experiment: KRas binding assay, TR-FRET displacement of Cy5 labelled tracer. The settings on record: 60-minute incubation at room temperature, 1% DMSO, pH 7.5. In a few lines:
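Truncated KRas (1-169), biotinylated, Tb-streptavidin donor; one-hour room-temperature incubation; IC50 by four-parameter curve fitting.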

In another experiment the target is T4, KRas G12S (Homo sapiens, UniProt P01116, G12S).
T4 construct: Biotinylated KRas (corresponding to amino acids 1-169, produced at Accelegan Inc.); biotin (biotinylated); purchased Accelegan Inc
T4 sequence (P01116 1-169 isoform P01116-2 G12S): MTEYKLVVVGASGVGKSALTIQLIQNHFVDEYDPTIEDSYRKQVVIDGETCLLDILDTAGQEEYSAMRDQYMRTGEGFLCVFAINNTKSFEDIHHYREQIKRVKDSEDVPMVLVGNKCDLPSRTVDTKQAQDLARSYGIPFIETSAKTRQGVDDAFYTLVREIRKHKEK
The description is as above. The settings on record: 60-minute incubation at room temperature, 1% DMSO, pH 7.5. A digest of the protocol:
(§1)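 Room-temperature incubation (60 min) of compound with biotinylated KRas 1-169, tracer and Tb-streptavidin preceded the TR-FRET read. Final DMSO was 1%; buffer pH 7.5. Percent-of-control values went into a 4-parameter equation to give IC50.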

For a further experiment, the target named is T5, KRas G12C (Homo sapiens, UniProt P01116, G12C).
T5 construct: Biotinylated KRas (corresponding to amino acids 1-169, produced at Accelegan Inc.); biotin (biotinylated); purchased Accelegan Inc
T5 sequence (P01116 1-169 isoform P01116-2 G12C): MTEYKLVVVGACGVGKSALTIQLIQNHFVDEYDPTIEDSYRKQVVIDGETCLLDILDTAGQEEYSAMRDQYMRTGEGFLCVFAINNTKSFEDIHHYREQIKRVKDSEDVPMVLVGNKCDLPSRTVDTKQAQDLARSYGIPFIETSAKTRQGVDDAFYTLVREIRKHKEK
Described as above. The settings on record: 60-minute incubation at room temperature, 1% DMSO, pH 7.5. A digest of the protocol: as §1

In experiment [3] the target is T6, KRas-mediated phosphorylation of ERK in H358 cells (Homo sapiens, UniProt P01116, G12C).
T6 construct: pERK HTRF read-out
T6 sequence (P01116 1-188 isoform P01116-2 G12C): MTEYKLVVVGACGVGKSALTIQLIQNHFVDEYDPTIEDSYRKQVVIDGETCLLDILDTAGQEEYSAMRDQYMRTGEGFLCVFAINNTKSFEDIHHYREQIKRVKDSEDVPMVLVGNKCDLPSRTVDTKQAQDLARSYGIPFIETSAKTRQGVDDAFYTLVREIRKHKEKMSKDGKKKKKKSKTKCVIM
The experiment is described as follows: Inhibition of KRas-mediated phosphorylation of ERK (HTRF), H358 cells. Conditions: HTRF pERK, 3 h incubation. Type of experiment: cell-based.

T1 sequence (P01116 1-188 isoform P01116-2 G12S): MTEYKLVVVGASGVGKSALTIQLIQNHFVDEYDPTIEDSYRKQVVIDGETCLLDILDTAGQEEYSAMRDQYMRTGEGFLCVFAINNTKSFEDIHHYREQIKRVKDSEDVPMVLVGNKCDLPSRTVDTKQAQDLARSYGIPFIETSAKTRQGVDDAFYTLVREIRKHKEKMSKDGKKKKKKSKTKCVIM
T3 sequence (P01116 1-169 isoform P01116-2): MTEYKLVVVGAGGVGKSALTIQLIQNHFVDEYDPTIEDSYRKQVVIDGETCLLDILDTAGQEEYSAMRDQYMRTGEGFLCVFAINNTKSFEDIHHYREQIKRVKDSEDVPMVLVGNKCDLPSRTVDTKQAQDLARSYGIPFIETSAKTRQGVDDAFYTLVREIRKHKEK
T2 sequence (P01116 1-188 isoform P01116-2): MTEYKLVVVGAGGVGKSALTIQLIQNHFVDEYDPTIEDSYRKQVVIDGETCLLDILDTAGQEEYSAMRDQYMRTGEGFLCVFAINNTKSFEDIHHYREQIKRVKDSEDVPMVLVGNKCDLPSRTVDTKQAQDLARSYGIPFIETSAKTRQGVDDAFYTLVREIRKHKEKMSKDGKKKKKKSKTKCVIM

Take `CCc1c(F)ccc2cc(O)cc(-c3ncc4c(N5CCN(C(=O)n6ccnc6)CC5)nc(OC[C@@]56CCCN5C[C@H](F)C6)nc4c3F)c12` [Example 150, (4-(7-(8-ethyl-7-fluoro-3-hydroxynaphthalen-1-yl)-8-fluoro-2-(((2R,7aS)-2-fluorotetrahydro-1H-pyrrolizin-7a(5H)-yl)methoxy)pyrido[4,3-d]pyrimidin-4-yl)piperazin-1-yl)(1H-imidazol-1-yl)methanone]: the half-inhibitory concentration (IC50) (as a rule, the concentration needed to halve the response being measured) was determined as 1580 nM in experiment [1]; 40 nM in experiment [2]; 2 nM on KRas WT; 3 nM at KRas G12S; 5 nM on KRas G12C; 39 nM in experiment [3].
As to `CCc1c(F)ccc2cc(O)cc(-c3ncc4c(N5CCN(C(=O)n6ccnn6)CC5)nc(OC[C@@]56CCCN5C[C@H](F)C6)nc4c3F)c12` [Example 151, (4-(7-(8-ethyl-7-fluoro-3-hydroxynaphthalen-1-yl)-8-fluoro-2-(((2R,7aS)-2-fluorotetrahydro-1H-pyrrolizin-7a(5H)-yl)methoxy)pyrido[4,3-d]pyrimidin-4-yl)piperazin-1-yl)(1H-1,2,3-triazol-1-yl)methanone], the IC50 in experiment [1] was 1210 nM; in experiment [2] it was 72 nM; on KRas WT it was 9 nM; at KRas G12S, 18 nM; at KRas G12C it was 12 nM; in experiment [3], 14 nM.
Take `CCc1c(F)ccc2cc(O)cc(-c3ncc4c(N5CCC(C(=O)N6CCCCC6=O)CC5)nc(OC[C@@]56CCCN5C[C@H](F)C6)nc4c3F)c12` [Example 154, 1-(1-(7-(8-ethyl-7-fluoro-3-hydroxynaphthalen-1-yl)-8-fluoro-2-(((2R,7aS)-2-fluorotetrahydro-1H-pyrrolizin-7a(5H)-yl)methoxy)pyrido[4,3-d]pyrimidin-4-yl)piperidine-4-carbonyl)piperidin-2-one]: the IC50 in experiment [1] was found to be 6280 nM; in experiment [2], 2870 nM; on KRas WT, 131 nM; at KRas G12S, 257 nM; at KRas G12C, 338 nM; in experiment [3], 7230 nM.
As to `CCc1c(F)ccc2cc(O)cc(-c3ncc4c(N5CCC(C(=O)N(C)C(C)=O)CC5)nc(OC[C@@]56CCCN5C[C@H](F)C6)nc4c3F)c12` [Example 155, N-acetyl-1-(7-(8-ethyl-7-fluoro-3-hydroxynaphthalen-1-yl)-8-fluoro-2-(((2R,7aS)-2-fluorotetrahydro-1H-pyrrolizin-7a(5H)-yl)methoxy)pyrido[4,3-d]pyrimidin-4-yl)-N-methylpiperidine-4-carboxamide], the IC50 is 445 nM in experiment [1]; 671 nM in experiment [2]; 140 nM at KRas WT; 135 nM at KRas G12S; 204 nM on KRas G12C; 2530 nM in experiment [3].
Turning to `CCc1c(F)ccc2cc(O)cc(-c3ncc4c(N5CC[C@@H]6[C@H](C5)[C@@H]6C(=O)n5ccc(C)n5)nc(OC[C@@]56CCCN5C[C@H](F)C6)nc4c3F)c12` [Example 157, ((1S,6R,7R)-3-(7-(8-ethyl-7-fluoro-3-hydroxynaphthalen-1-yl)-8-fluoro-2-(((2R,7aS)-2-fluorotetrahydro-1H-pyrrolizin-7a(5H)-yl)methoxy)pyrido[4,3-d]pyrimidin-4-yl)-3-azabicyclo[4.1.0]heptan-7-yl)(3-methyl-1H-pyrazol-1-yl)methanone], the concentration for half-maximal inhibition (IC50) in experiment [1] worked out at 7590 nM; in experiment [2], 955 nM; at KRas WT it was 32 nM; on KRas G12S, 122 nM; on KRas G12C, 84 nM; in experiment [3], 2110 nM.
`CCc1c(F)ccc2cc(O)cc(-c3ncc4c(NC[C@H]5C[C@@H]5C(=O)n5ccc(C)n5)nc(OC[C@@]56CCCN5C[C@H](F)C6)nc4c3F)c12` [Example 159, ((1S,2S)-2-(((7-(8-ethyl-7-fluoro-3-hydroxynaphthalen-1-yl)-8-fluoro-2-(((2R,7aS)-2-fluorotetrahydro-1H-pyrrolizin-7a(5H)-yl)methoxy)pyrido[4,3-d]pyrimidin-4-yl)amino)methyl)cyclopropyl)(3-methyl-1H-pyrazol-1-yl)methanone]: the IC50 in experiment [1] was 6 nM; in experiment [2] it was 57 nM; at KRas WT, 15 nM; at KRas G12S it was 4 nM; at KRas G12C it was 6 nM; in experiment [3] it was 108 nM.
For `CCc1c(F)ccc2cc(O)cc(-c3ncc4c(N5C[C@H]6C[C@H](C(=O)n7ccc(C)n7)[C@H]6C5)nc(OC[C@@]56CCCN5C[C@H](F)C6)nc4c3F)c12` [Example 161, ((1S,5S,6S)-3-(7-(8-ethyl-7-fluoro-3-hydroxynaphthalen-1-yl)-8-fluoro-2-(((2R,7aS)-2-fluorotetrahydro-1H-pyrrolizin-7a(5H)-yl)methoxy)pyrido[4,3-d]pyrimidin-4-yl)-3-azabicyclo[3.2.0]heptan-6-yl)(3-methyl-1H-pyrazol-1-yl)methanone], the IC50 was 717 nM in experiment [1]; 7280 nM in experiment [2]; 282 nM at KRas WT; 185 nM at KRas G12S; 86 nM on KRas G12C; over 10000 nM in experiment [3].
For the molecule `CCc1c(F)ccc2cc(O)cc(-c3ncc4c(N5C[C@@H]6C[C@@H](C(=O)n7ccc(C)n7)[C@@H]6C5)nc(OC[C@@]56CCCN5C[C@H](F)C6)nc4c3F)c12` [Example 162, ((1R,5R,6R)-3-(7-(8-ethyl-7-fluoro-3-hydroxynaphthalen-1-yl)-8-fluoro-2-(((2R,7aS)-2-fluorotetrahydro-1H-pyrrolizin-7a(5H)-yl)methoxy)pyrido[4,3-d]pyrimidin-4-yl)-3-azabicyclo[3.2.0]heptan-6-yl)(3-methyl-1H-pyrazol-1-yl)methanone], the half-maximal inhibitory concentration (IC50) in experiment [1] is 6480 nM; in experiment [2], over 10000 nM; at KRas WT it was 1050 nM; on KRas G12S, 491 nM; on KRas G12C it was 673 nM; in experiment [3] it was over 10000 nM.
As for `CCc1c(F)ccc2cc(O)cc(-c3ncc4c(N(CC)CCCC(=O)n5ccc(C)n5)nc(OC[C@@]56CCCN5C[C@H](F)C6)nc4c3F)c12` [Example 164, 4-(ethyl(7-(8-ethyl-7-fluoro-3-hydroxynaphthalen-1-yl)-8-fluoro-2-(((2R,7aS)-2-fluorotetrahydro-1H-pyrrolizin-7a(5H)-yl)methoxy)pyrido[4,3-d]pyrimidin-4-yl)amino)-1-(3-methyl-1H-pyrazol-1-yl) butan-1-one], the IC50 worked out at 50 nM in experiment [1]; 2210 nM in experiment [2]; 103 nM on KRas WT; 8 nM at KRas G12S; 5 nM at KRas G12C; 999 nM in experiment [3].
As to `CCc1c(F)ccc2cc(O)cc(-c3ncc4c(N(CCCC(=O)n5ccc(C)n5)C5CC5)nc(OC[C@@]56CCCN5C[C@H](F)C6)nc4c3F)c12` [Example 165, 4-(cyclopropyl(7-(8-ethyl-7-fluoro-3-hydroxynaphthalen-1-yl)-8-fluoro-2-(((2R,7aS)-2-fluorotetrahydro-1H-pyrrolizin-7a(5H)-yl)methoxy)pyrido[4,3-d]pyrimidin-4-yl)amino)-1-(3-methyl-1H-pyrazol-1-yl) butan-1-one], the IC50 in experiment [1] turned out to be 62 nM; in experiment [2], 226 nM; on KRas WT it was 52 nM; at KRas G12S, 4 nM; on KRas G12C, 2 nM; in experiment [3], 450 nM.
